target: T1, Dimer of Gag-Pol polyprotein [489-587] (Human immunodeficiency virus 1, UniProt P12497); assay: Protease Inhibition Assay; details: pH 6; 37 °C
T1 construct: 489-587
Description: IC50 values were obtained by assaying the enzyme against the synthetic substrate peptide KQGTVSFNFPQIT, which was tritiated at the proline residue, and then was coupled via its N-terminal lysine to an Affi-gel bead mixture. The assay was performed in 96-well microtiter filtration plates. The plates containing HIV protease and radiolabeled substrate beads were incubated with or without inhibitor. After filtration, radioactivity was measured using an LKB 1205 Microbeta liquid scintillation counter. IC50 determinations were performed in duplicate at each concentration with mean values used for data analysis.

`CC(C)[C@H](CO)NC(=O)[C@@H]1N[C@@H]([C@H](NC(=O)Cc2ccccc2)C(=O)NCc2ccccc2)SC1(C)C` [(2R,4S)-2-[(R)-(benzylcarbamoyl)(1-phenylacetamido)methyl]-N-[(2R)-1-hydroxy-3-methylbutan-2-yl]-5,5-dimethyl-1,3-thiazolidine-4-carboxamide] and `CCC(C)C(CO)NC(=O)[C@@H]1N[C@@H]([C@H](NC(=O)Cc2ccccc2)C(=O)NCc2ccccc2)SC1(C)C` (stereo partly drawn) [(2R,4S)-2-[(R)-(benzylcarbamoyl)(1-phenylacetamido)methyl]-N-(1-hydroxy-3-methylpentan-2-yl)-5,5-dimethyl-1,3-thiazolidine-4-carboxamide] cannot be ordered by IC50: > 4.7 µM for the first, > 0.54 µM for the second.

`CC1(C)S[C@H]([C@H](NC(=O)Cc2ccccc2)C(=O)NCc2ccccc2)N[C@H]1C(=O)N[C@H](CO)Cc1ccccc1` [(2R,4S)-2-[(R)-(benzylcarbamoyl)(1-phenylacetamido)methyl]-N-[(2S)-1-hydroxy-3-phenylpropan-2-yl]-5,5-dimethyl-1,3-thiazolidine-4-carboxamide] and `C[C@H](Cc1ccccc1)NC(=O)[C@@H]1N[C@@H]([C@H](NC(=O)Cc2ccccc2)C(=O)NCc2ccccc2)SC1(C)C` [(2R,4S)-2-[(R)-(benzylcarbamoyl)(1-phenylacetamido)methyl]-5,5-dimethyl-N-[(2R)-1-phenylpropan-2-yl]-1,3-thiazolidine-4-carboxamide] cannot be ordered by IC50: > 170 µM for the first, > 180 µM for the second.

Going from `CC1(C)S[C@H]([C@H](NC(=O)Cc2ccccc2)C(=O)NCc2ccccc2)N[C@H]1C(=O)NCCNC(=O)[C@@H]1N[C@@H]([C@H](NC(=O)Cc2ccccc2)C(=O)NCc2ccccc2)SC1(C)C` [(2R,4S)-2-[(R)-(benzylcarbamoyl)(1-phenylacetamido)methyl]-N-(2-{[(2R,4S)-2-[(R)-(benzylcarbamoyl)(1-phenylacetamido)methyl]-5,5-dimethyl-1,3-thiazolidin-4-yl]formamido}ethyl)-5,5-dimethyl-1,3-thiazolidine-4-carboxamide] to `C[C@@H](Cc1ccccc1)NC(=O)[C@@H]1N[C@@H]([C@H](NC(=O)Cc2ccccc2)C(=O)NCc2ccccc2)SC1(C)C` [(2R,4S)-2-[(R)-(benzylcarbamoyl)(1-phenylacetamido)methyl]-5,5-dimethyl-N-[(2S)-1-phenylpropan-2-yl]-1,3-thiazolidine-4-carboxamide], the IC50 rises from 0.0009 µM to > 180 µM. The first is the more potent here.

`C[C@H](CO)NC(=O)[C@@H]1N[C@@H]([C@H](NC(=O)Cc2ccccc2)C(=O)NCc2ccccc2)SC1(C)C` [(2R,4S)-2-[(R)-(benzylcarbamoyl)(1-phenylacetamido)methyl]-N-[(2R)-1-hydroxypropan-2-yl]-5,5-dimethyl-1,3-thiazolidine-4-carboxamide] and `CC(C)C[C@H](CO)NC(=O)[C@@H]1N[C@@H]([C@H](NC(=O)Cc2ccccc2)C(=O)NCc2ccccc2)SC1(C)C` [(2R,4S)-2-[(R)-(benzylcarbamoyl)(1-phenylacetamido)methyl]-N-[(2R)-1-hydroxy-4-methylpentan-2-yl]-5,5-dimethyl-1,3-thiazolidine-4-carboxamide] cannot be ordered by IC50: > 20 µM for the first, > 4.6 µM for the second.

With `CC1(C)S[C@H]([C@H](NC(=O)Cc2ccccc2)C(=O)NCc2ccccc2)N[C@H]1C(N)=O` [[2R-[2a(R*),4B]]-4-Carbamoyl-5,5-dimethyl-a-[(phenylacetyl)amino]-N-(phenylmethyl)-2-thiazolidineacetamide] the IC50 was > 230 µM.
